Test results from patent US20210205638A1, “PARATHYROID HORMONE AND REGENERATION OF DEGENERATIVE DISCS DISEASE” (THE JOHNS HOPKINS UNIVERSITY, priority 2017, published 2021).

Columns and labels:
PTH1R KO mice = experiment: iPTH in PTH1R KO and PTH1R+/+ mice: PPCT IVD volume; format: in vivo, mouse
Method: Mice carrying the PTH1R gene flanked by loxP sites (PTH1R^flox/flox) were mated with Noto^Cre mice to generate mice bearing Noto^Cre and a floxed PTH1R allele in their germline. These mice were backcrossed to homozygous floxed mice (Noto^Cre/+/PTH1R^flox/+::PTH1R^flox/flox) to generate mice with inactivation of both alleles in notochord derived cells (genotype Noto^+/+::PTH1R^flox/flox). […] The genotype of transgenic mice was determined by PCR analyses of genomic DNA isolated from mouse tails. […] The images were reconstructed and analyzed using the GPU-CT-Reconstruction software (applied by the BL13W1 experimental station) and the VG Studio Max 3D software (version 2.1, Volume Graphics GmbH, Germany) respectively. […] The 3D quantitative analysis of IVDs was performed with the commercially available Image Pro Analyzer 3D software (Version 7.0, Media Cybernetics, Inc., USA). The 3D structural parameters analyzed for the mean height and volume and thickness distribution of IVDs. The trabecular bone of L4 was segmented from the bone marrow and analyzed to determine the trabecular bone volume fraction (BV/TV), trabecular thickness (Tb. Th), trabecular number (Tb. N) and trabecular separation (Tb. Sp).

PTH1R = target: T1, PTH1R (Mus musculus, UniProt P41593); experiment: Primary cilia visualization and co-localization in NP cells; format: cell-based
T1 construct: endogenous in cells; host or cells: primary mouse nucleus pulposus (NP) cells isolated from intervertebral discs of 15-day old male mice
T1 sequence (P41593 27-591): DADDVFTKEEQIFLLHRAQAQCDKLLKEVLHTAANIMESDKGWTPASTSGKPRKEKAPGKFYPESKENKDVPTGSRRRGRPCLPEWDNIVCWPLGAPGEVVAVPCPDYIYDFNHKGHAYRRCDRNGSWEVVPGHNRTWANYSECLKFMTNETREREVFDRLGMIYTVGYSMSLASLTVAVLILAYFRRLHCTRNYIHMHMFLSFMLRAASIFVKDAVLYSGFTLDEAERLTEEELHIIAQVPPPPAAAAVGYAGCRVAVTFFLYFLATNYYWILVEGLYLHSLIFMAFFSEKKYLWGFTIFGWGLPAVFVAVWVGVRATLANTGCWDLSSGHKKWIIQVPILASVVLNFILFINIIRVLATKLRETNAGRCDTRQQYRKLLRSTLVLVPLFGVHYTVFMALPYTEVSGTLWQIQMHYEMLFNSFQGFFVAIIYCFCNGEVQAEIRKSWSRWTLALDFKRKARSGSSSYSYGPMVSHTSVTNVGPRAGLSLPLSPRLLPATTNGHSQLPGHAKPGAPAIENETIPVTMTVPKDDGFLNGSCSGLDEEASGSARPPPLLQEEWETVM
Method: The localization of PTH signaling components within NP cells was investigated through immunocytochemistry after 48 hours of serum starvation (DMEM, 0.5% FBS, 1% P/S). Cells were treated with PTH (recombinant human PTH, […], Bachem Calif., Inc. King of Prussia, Pa., USA.) or shear stress (1 dyn/cm^2) with times of exposure for 30 minutes, fixed and stained for acetylated α-tubulin of primary cilia, PTH1R (Abcam, 1:100) and pCREP (Abcam, 1:500). Coverslips were mounted with Fluoroshield-DAPI. All cells were imaged using a Zeiss LSM710 META Confocal Laser Scanning microscope fitted with a 63× objective. Region of interest were selected manually using ImageJ software. The intensity profiles along the cilia have been performed by tracing a line across the length of the primary cilia and measuring intensity along this line using ImageJ software. Average intensities in the ciliary region, were measured on at least 30 ciliated cells per condition.

CC[C@H](C)[C@H](NC(=O)[C@H](CCC(=O)O)NC(=O)[C@H](CO)NC(=O)[C@@H](NC(=O)[C@@H](N)CO)C(C)C)C(=O)N[C@@H](CCC(N)=O)C(=O)N[C@@H](CC(C)C)C(=O)N[C@@H](CCSC)C(=O)N[C@@H](Cc1cnc[nH]1)C(=O)N[C@@H](CC(N)=O)C(=O)N[C@@H](CC(C)C)C(=O)NCC(=O)N[C@@H](CCCCN)C(=O)N[C@@H](Cc1cnc[nH]1)C(=O)N[C@@H](CC(C)C)C(=O)N[C@@H](CC(N)=O)C(=O)N[C@@H](CO)C(=O)N[C@@H](CCSC)C(=O)N[C@@H](CCC(=O)O)C(=O)N[C@@H](CCCN=C(N)N)C(=O)N[C@H](C(=O)N[C@@H](CCC(=O)O)C(=O)N[C@@H](Cc1c[nH]c2ccccc12)C(=O)N[C@@H](CC(C)C)C(=O)N[C@@H](CCCN=C(N)N)C(=O)N[C@@H](CCCCN)C(=O)N[C@@H](CCCCN)C(=O)N[C@@H](CC(C)C)C(=O)N[C@@H](CCC(N)=O)C(=O)N[C@@H](CC(=O)O)C(=O)N[C@H](C(=O)N[C@@H](Cc1cnc[nH]1)C(=O)N[C@@H](CC(N)=O)C(=O)N[C@@H](Cc1ccccc1)C(=O)O)C(C)C)C(C)C [PTH (1-34), teriparatide]
increase of IVD volume by iPTH (PTH1R KO mice; 12-month-old PTH1R KO mice): abolished
IVD volume (PTH1R KO mice; 12-month-old PTH1R+/+ mice): Increase
start of translocation of PTH1R to cilia (PTH1R): 10 min
translocation of PTH1R to cilia (PTH1R): stimulated translocation of PTH1R to cilia significantly
pCREB in cilia (PTH1R; co-immunostaining with acetylated tubulin): increased
PTH-enhanced transport of PTH1R to cilia (PTH1R; knockdown of pallidin with siRNA): blocked
